Assay results taken from article PMC10058761, “Heart-Type Fatty Acid Binding Protein Binds Long-Chain Acylcarnitines and Protects against Lipotoxicity” (International Journal of Molecular Sciences, 2023).
“And” between values parts separate entries of the source, which are not always exact repeats. Equal values may be shown once.

Legend:
in vitro = conditions: human
Description: PANC-1 (ATCC® CRL-1469™) pancreatic epithelial carcinoma cells were obtained from ATCC® (Manassas, VA, USA). PANC-1 cells were chosen as they are suitable for transfection and are characterized by low endogenous expression levels of FABP3. The cells were grown in Dulbecco’s Modified Eagle’s Medium (DMEM) supplemented with 10% (v/v) fetal bovine serum (FBS) and 1% (v/v) penicillin/streptomycin (Pen/Strep) at 37 °C in a humidified incubator with 5% CO2. All reagents for cell maintenance were purchased from Thermo Fisher Scientific. For experiments, PANC-1 cells were seeded at density 1 × 10^5 cells∙mL^−1 (100 μL per well) in the 96-well plate. Cells were left to attach to the plate overnight. Briefly, before the experiment, PANC-1 cells in 96-well plates were washed with Hanks’ Balanced Salt Solution (HBSS) several times. For all cell experiments, serum-free DMEM media were used.
Briefly, the cell media were removed from the wells. A solution of MTT was added to each well at the concentration of 1 mg∙mL^−1. The plate was incubated for 2 h at 37 °C. Then the MTT solution was removed and 100 μL of isopropyl alcohol was added to each well to dissolve the formazan crystals produced by living cells. The plate was then measured by the Hidex plate reader (Hidex Oy, Turku, Finland).

[1] = LCAC cytotoxicity assay (MTT) in FABP3-overexpressing PANC-1 cells; format: cell-based; conditions: human, 40 μM C16:0-carnitine, cells transfected with the FABP3 plasmid, read-out: cell viability
Source text: Cells were left to attach to the plate overnight.
Briefly, the cell media were removed from the wells.
Next, we tested whether overexpression of FABP3 could result in protective effects regarding the cell viability of the PANC-1 cells. The commercially available FuGENE® HD transfection reagent (Promega Corporation, Madison, WI, USA) was mixed with the FABP3 (NM_010174) mouse tagged ORF clone plasmid (OriGene Technologies, Inc., Rockville, MD, USA) in a 4:1 ratio for transfection according to the manufacturer’s protocol. Transfection was performed for 24 h in 6-well plates. To ensure transfection efficiency, quantitative PCR (qPCR) and Western blot analysis were performed (see Figures S52 and S53). Transfected PANC-1 cells were transferred to 96-well plates and further examined for C16:0-carnitine toxicity at various concentrations as previously described. The obtained results were compared to the effects in native cells.

human FABP3 [2] = molecular target: T1, human FABP3 (Homo sapiens, UniProt P05413); experiment: Ligand binding by NMR (2D 1H-15N HSQC chemical shift perturbations); conditions: KPi buffer pH 7.6
T1 construct: His-tag (N); TEV cleavage site (N); made in house; host or cells: E. coli BL21(DE3)
T1 sequence (P05413 whole entry): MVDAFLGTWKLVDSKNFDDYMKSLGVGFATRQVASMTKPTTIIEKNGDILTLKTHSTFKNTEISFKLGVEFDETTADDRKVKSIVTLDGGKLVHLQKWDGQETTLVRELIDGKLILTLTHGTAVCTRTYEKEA
Description: NMR spectra were acquired on the 600 MHz Bruker Avance Neo spectrometer (Bruker Biospin GmbH, Rheinstetten, Germany) equipped with a 5-mm quadruple-resonance CryoProbe (QCI) with z-gradients. […] All experiments were performed in KPi buffer without or with TX and with the addition of 7% (v/v) D2O, 0.03% (v/v) NaN3, and 0.01% (v/v) SigmaFAST EDTA-free protease inhibitor cocktail to prevent protein degradation. The amount of organic solvent (ethanol or DMSO-d6) was below 2% (v/v) in each experiment.
3D HNCA, 3D HNCO, 3D HN(CA)CO, and 3D CBCA(CO)NH spectra were acquired for the backbone assignment. 3D [^1H,^1H]-nuclear Overhauser spectroscopy (NOESY)-^15N-heteronuclear single-quantum correlation (HSQC) spectrum was acquired using a mixing time of 100 ms and also used in the backbone assignment. 2D ^1H-^15N HSQC spectra were acquired for evaluation of the CSPs caused by the lipid binding. Chemical shifts were referenced internally to the residual water signal at 4.70 ppm relative to the 4,4-dimethyl-4-silapentane-1-sulfonic acid (DSS). […] Other complexes were analyzed by analogy and with the help of 3D [^1H-^1H]-NOESY-^15N-HSQC. All spectra were processed in TopSpin v. 4.1.1. (Bruker, Billerica, MA, USA) and analyzed in CARA 1.9.1. software. Residue-specific protein backbone amide assignment was performed based on the published chemical shifts. CSPs, Δδ, were calculated using Equation (1) with the scaling factor, α, which was set to 0.1 [67, 68]. (1) Δδ=1/2[δH2+α·δN^2],

human FABP3 [3] = molecular target: T1, human FABP3; experiment: ITC determination of heat capacity change at 16, 25 and 37 °C; format: binding; conditions: KPi without TX; ΔH at 16, 25, 37 °C, linear regression
Source text: Heat capacity changes, ΔCp, are important indicators of the structural changes during ligand-to-protein binding in various environmental conditions and may reflect changes in the static and dynamic properties of the protein [33, 34]. Moreover, it may represent interactions with extra supplements, such as salts and detergents, and larger processes, such as changes in protein folding, solvent-accessible surface area (SASA), or protonation states within the active site. […] Thermodynamic parameters for the remaining LCFAs were determined in the KPi + TX buffer, while LCACs were tested in the KPi buffer without any additive. Figure 7 represents an example of the overlays of the ITC experiments for C18:1(n-9)c and the corresponding LCAC performed at the following temperatures: 16, 25, and 37 °C.
(§1) ITC experiments were carried out on the MicroCal™ iTC200 instrument (Malvern Instruments Ltd., Malvern, UK). Experiments were performed in KPi buffer without and with 0.1% (v/v) TX supplement. All titrations except for the determination of the heat capacity, ΔCp, were performed at 25 °C using 20–120 μM protein. Experiments for the determination of the ΔCp were performed at three different temperatures: 16, 25, and 37 °C. 280 μL of the protein solution in the sample cell were titrated with the ligand solution diluted to 200–1200 μM depending on the enzyme concentration (to achieve a 1:10 or 1:5 ratio). Every titration started with a small 0.3 μL injection introduced to compensate for the diffusion effects. One of the following injection profiles was chosen based on the activity of the ligand and binding heat released: 1.2 μL × 32 or 1.5 μL × 26—all with 120 s time spacing between every injection and 600 rpm. Each ligand was titrated at least two times. The reference baseline consisting of small peaks of identical size (titration of the corresponding ligand into the buffer) was subtracted from the data before fitting to correct for the heat of the ligand dilution. The first injection was excluded from each dataset. The final data were fitted to a theoretical titration curve (one set of sites fitting model) using MicroCal Origin 7 SR4 software (OriginLab, Northampton, MA, USA).

human FABP3 [4] = molecular target: T1, human FABP3; experiment: ITC assay of ligand binding to apo-FABP3; conditions: KPi pH 7.6, 25 °C, without TX; for N (stoichiometry): protein assumed 100% active and delipidated
Description: as §1, with “All titrations except for the determination of the heat capacity, ΔCp, were performed at 25 °C using 20–120 μM protein.” left out, “280 μL of the protein solution in the sample cell were titrated with the ligand solution diluted to 200–1200 μM depending on the enzyme concentration (to achieve a 1:10 or 1:5 ratio).” left out

human FABP3 [5] = molecular target: T1, human FABP3; experiment: ITC competitive binding experiments (FABP3 pre-saturated with a competing ligand); conditions: KPi, 25 °C
Description: as §1, with “The final data were fitted to a theoretical titration curve (one set of sites fitting model) using MicroCal Origin 7 SR4 software (OriginLab, Northampton, MA, USA).” left out

[6] = FABP3 saturated with C8:0, titrated with C18:1(n-9)t-carnitine, Competitive Binding model
[7] = FABP3 saturated with C8:0, titrated with C18:1(n-9)t-carnitine, One Set of Sites model

| binding to FABP3 by NMR (CSPs in 2D 1H-15N HSQC) (human FABP3 [2]) | ΔCp (human FABP3 [3]) [kcal∙mol^−1∙K^−1] | Kd (human FABP3 [4]) | ΔG (human FABP3 [4]) [kcal/mol] | ΔH (human FABP3 [4]) [kcal/mol] | −TΔS (human FABP3 [4]) [kcal/mol] | N (stoichiometry) (human FABP3 [4]) | -TΔS (human FABP3 [5]; [6]) [kcal/mol] | ΔG (human FABP3 [5]; [6]) [kcal/mol] | ΔH (human FABP3 [5]; [6]) [kcal/mol] | -TΔS (human FABP3 [5]; [7]) [kcal/mol] | Kd (human FABP3 [5]; [7]) [µM] | ΔG (human FABP3 [5]; [7]) [kcal/mol] | ΔH (human FABP3 [5]; [7]) [kcal/mol] | binding heat effects in competition titration (human FABP3 [5]; FABP3 saturated with C10:0, titrated with C18:1(n-9)t-carnitine) | SMILES | CC50 at 4 h (in vitro) [µM] | viability at 4 h, 40 μM (in vitro) [%] | viability at 4 h, 40 μM [1] [%] |
| --- | --- | --- | --- | --- | --- | --- | --- | --- | --- | --- | --- | --- | --- | --- | --- | --- | --- | --- |
| strong CSPs indicative of binding | −0.09 ± 0.01 | 2.21 ± 0.07 µM | -7.72 ± 0.01 | -4.6 ± 0.2 | -3.1 ± 0.2 | 0.5 |  |  |  |  |  |  |  |  | CCCCCCCC/C=C\CCCCCCCC(=O)O[C@H](CC(=O)O)C[N+](C)(C)C.[Cl-] [C18:1(n-9)c-carnitine, oleoylcarnitine] |  |  |  |
| strong CSPs indicative of binding | −0.14 ± 0.01 | 2.2 µM and 2.19 µM | -7.72 ± 0.02 |  |  | 0.5 | 0.32 ± 0.09 | -11.7 ± 0.1 | -12.0 ± 0.3 | -5.8 ± 0.3 | 1.8 ± 0.2 | -7.85 ± 0.08 | -2.0 ± 0.2 | no binding heat effects were detected | CCCCCCCC/C=C/CCCCCCCC(=O)O[C@H](CC(=O)O)C[N+](C)(C)C [C18:1(n-9)t-carnitine, elaidoylcarnitine] |  |  |  |
| strong CSPs indicative of binding | −0.07 ± 0.01 | 14.83 ± 0.08 µM | -6.61 ± 0.03 | -2.43 ± 0.09 | -4.19 ± 0.06 | 1.0 |  |  |  |  |  |  |  |  | CC/C=C\C/C=C\C/C=C\C/C=C\C/C=C\CCCC(=O)O[C@H](CC(=O)O)C[N+](C)(C)C [C20:5(n-3)c-carnitine, EPA-carnitine] |  |  |  |

| SMILES | binding to FABP3 by NMR (CSPs in 2D 1H-15N HSQC) (human FABP3 [2]) | ΔCp (human FABP3 [3]) [kcal∙mol^−1∙K^−1] | Kd (human FABP3 [4]) | ΔG (human FABP3 [4]) [kcal/mol] | ΔH (human FABP3 [4]) [kcal/mol] | −TΔS (human FABP3 [4]) [kcal/mol] | N (stoichiometry) (human FABP3 [4]) | -TΔS (human FABP3 [5]; [6]) [kcal/mol] | ΔG (human FABP3 [5]; [6]) [kcal/mol] | ΔH (human FABP3 [5]; [6]) [kcal/mol] | -TΔS (human FABP3 [5]; [7]) [kcal/mol] | Kd (human FABP3 [5]; [7]) [µM] | ΔG (human FABP3 [5]; [7]) [kcal/mol] | ΔH (human FABP3 [5]; [7]) [kcal/mol] | binding heat effects in competition titration (human FABP3 [5]; FABP3 saturated with C10:0, titrated with C18:1(n-9)t-carnitine) | CC50 at 4 h (in vitro) [µM] | viability at 4 h, 40 μM (in vitro) [%] | viability at 4 h, 40 μM [1] [%] |
| --- | --- | --- | --- | --- | --- | --- | --- | --- | --- | --- | --- | --- | --- | --- | --- | --- | --- | --- |
| CCCCCCCCCCCCCCCC(=O)O[C@H](CC(=O)[O-])C[N+](C)(C)C [C16:0-carnitine] | did not show any significant CSPs |  |  |  |  |  |  |  |  |  |  |  |  |  |  | ~25 | < 20 | ~70 |
